Structures can show the parent of a compound that is named as a salt.

The term IC50 denotes the point on the concentration scale where inhibition reaches its midpoint.

Sequence of hNav1.7 (Q15858 other isoform, or with tags, fused parts or gaps): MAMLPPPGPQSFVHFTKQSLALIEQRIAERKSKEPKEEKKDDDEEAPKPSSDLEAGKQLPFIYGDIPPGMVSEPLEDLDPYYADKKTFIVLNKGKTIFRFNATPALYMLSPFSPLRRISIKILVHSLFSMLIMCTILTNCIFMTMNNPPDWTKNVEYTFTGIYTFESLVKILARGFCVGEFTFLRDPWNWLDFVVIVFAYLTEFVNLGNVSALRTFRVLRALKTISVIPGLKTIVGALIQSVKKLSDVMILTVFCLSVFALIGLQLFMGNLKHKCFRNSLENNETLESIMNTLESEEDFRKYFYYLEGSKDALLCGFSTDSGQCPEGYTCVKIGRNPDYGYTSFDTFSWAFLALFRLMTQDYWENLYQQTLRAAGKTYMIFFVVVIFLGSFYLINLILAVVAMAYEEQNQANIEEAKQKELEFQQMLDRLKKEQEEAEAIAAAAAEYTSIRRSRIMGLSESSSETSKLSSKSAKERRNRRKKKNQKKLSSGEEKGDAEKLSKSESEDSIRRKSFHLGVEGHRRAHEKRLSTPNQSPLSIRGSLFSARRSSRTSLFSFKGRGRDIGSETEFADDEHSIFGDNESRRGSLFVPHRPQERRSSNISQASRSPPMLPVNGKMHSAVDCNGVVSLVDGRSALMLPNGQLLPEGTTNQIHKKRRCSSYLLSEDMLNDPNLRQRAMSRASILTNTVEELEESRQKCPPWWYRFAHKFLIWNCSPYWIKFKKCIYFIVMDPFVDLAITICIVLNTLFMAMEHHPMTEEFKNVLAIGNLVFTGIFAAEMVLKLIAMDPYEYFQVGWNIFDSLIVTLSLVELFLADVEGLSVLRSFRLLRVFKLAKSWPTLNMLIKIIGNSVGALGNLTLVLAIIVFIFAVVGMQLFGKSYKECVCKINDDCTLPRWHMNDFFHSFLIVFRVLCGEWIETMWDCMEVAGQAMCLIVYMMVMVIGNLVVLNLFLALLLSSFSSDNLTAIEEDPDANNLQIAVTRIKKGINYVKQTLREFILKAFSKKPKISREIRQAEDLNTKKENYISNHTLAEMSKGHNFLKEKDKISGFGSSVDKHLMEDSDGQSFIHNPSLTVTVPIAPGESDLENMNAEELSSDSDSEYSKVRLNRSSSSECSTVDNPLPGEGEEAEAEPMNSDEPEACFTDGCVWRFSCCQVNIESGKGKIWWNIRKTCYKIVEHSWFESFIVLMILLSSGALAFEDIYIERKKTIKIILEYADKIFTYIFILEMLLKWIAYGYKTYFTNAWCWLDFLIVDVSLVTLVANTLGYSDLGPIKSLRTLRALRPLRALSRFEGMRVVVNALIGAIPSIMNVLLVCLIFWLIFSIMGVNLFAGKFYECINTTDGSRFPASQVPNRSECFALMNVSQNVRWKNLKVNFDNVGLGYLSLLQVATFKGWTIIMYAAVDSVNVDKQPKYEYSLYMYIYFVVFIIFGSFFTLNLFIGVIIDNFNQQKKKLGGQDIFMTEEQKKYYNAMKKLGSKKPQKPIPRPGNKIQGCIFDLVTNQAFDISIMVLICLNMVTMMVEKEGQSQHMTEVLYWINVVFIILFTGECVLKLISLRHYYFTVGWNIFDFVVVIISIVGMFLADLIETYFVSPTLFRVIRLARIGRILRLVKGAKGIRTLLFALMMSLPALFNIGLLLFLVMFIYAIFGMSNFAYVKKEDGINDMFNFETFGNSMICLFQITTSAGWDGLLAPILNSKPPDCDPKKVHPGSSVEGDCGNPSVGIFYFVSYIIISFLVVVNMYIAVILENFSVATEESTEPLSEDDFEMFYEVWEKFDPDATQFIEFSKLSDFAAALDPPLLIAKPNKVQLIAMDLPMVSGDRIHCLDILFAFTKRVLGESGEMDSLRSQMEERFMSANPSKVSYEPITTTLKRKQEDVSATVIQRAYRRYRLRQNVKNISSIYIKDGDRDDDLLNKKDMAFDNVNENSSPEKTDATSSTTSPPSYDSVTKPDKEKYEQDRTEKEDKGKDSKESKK

This experiment deals with hNav1.7 (Homo sapiens (Human), UniProt Q15858). Nature of the experiment: Patch voltage clamp electrophysiology (EP), Syncropatch 384PE, CHO cells stably expressing Nav1.7. The class given is cell-based. The note with it: holding potential −50 mV, 7.5 min compound incubation, read-out: EP_SP hNav1.7 EVO IC50. The text has this:
Example 64c. Electrophysiological Assay (EP) (In Vitro Assay)
Patch voltage clamp electrophysiology allows for the direct measurement and quantification of block of voltage-gated sodium channels (NaV's), and allows the determination of the time- and voltage-dependence of block which has been interpreted as differential binding to the resting, open, and inactivated states of the sodium channel (Hille, B., Journal of General Physiology (1977), 69: 497-515).
The following voltage clamp electrophysiology studies are performed on representative compounds using cells heterologously expressing Nav1.7 or Nav1.5 channels. cDNAs for Nav1.7 (NM_002977) and Nav1.5 (AC137587) are stably expressed in Chinese Hamstr Ovary (CHO) cells and CHL (Chinese Hamster Lung) cells respectively. Sodium currents are measured in the whole-cell configuration using Syncropatch 384PE (Nanlon Technologies, Germany). 1NPC®-384 chips with custom medium resistance and single hole mode are used. Internal solution consists of (in mM): […], 10 CsCl, 20 EGTA, and 10 Hepes (pH adjusted to 7.2); and external solution contains (in mM): 60 NMDG, 80 NaCl, 4 KCl, 1 MgCl2, 2 CaCl2, 2 D-Glucose monohydrate, 10 Hepes (pH adjusted to 7.4 with NaOH).
After system flushing, testing compounds are dissolved in external solution containing 0.1% Pluronic F-127. The chip is moved into the measuring head and the instrument primes the chip with external and internal solutions. 10 μl cells are added to the chip from a cell hotel, and a negative pressure of −50 mBar is applied to form a seal. Following treatment with seal enhancer solution and wash-off with external solution, negative pressure of −250 mbar is applied for 1 second to achieve the whole-cell configuration, followed by three washing steps in external solution. 20 μl of compounds is added to 40 μl in each well (1:3 dilution of compounds), and after mixing, 20 μl is removed so the volume is retained at 40 ul. After approximately 13 minutes recordings, 20 μl/well of 2 uM TTX, or 333 uM Tetracaine (for […]) is added to achieve full block.
For voltage protocol, an holding potential of −50 mV is applied during the whole experiment. A depolarizing step is applied to −10 mV for 10 ms, followed by a hyperpolarization step to −150 mV for 20 ms to allow channel recovery from inactivation. A second depolarizing step is applied from −150 mV to −10 mV for 10 ms, where currents are measured to derive blocking effects of compounds. Inhibition is determined based on 7.5 min of compound incubation.
In general terms: In patch-clamp work, channel activity is measured electrically.
For the compound `CN(C)[C@H]1C[C@@H](c2cccc(C(F)(F)F)c2)CC[C@@H]1Oc1ccc(S(=O)(=O)Nc2ccncn2)cn1` [Example 1, 6-(((1S,2S,4S)-2-(Dimethylamino)-4-(3-(trifluoromethyl)phenyl)cyclohexyl)oxy)-N-(pyrimidin-4-yl)pyridine-3-sulfonamide], the IC50 stood at 0.9 nM.

As for `CN(C)[C@H]1C[C@@H](c2cccc(C(F)(F)F)c2)CC[C@@H]1Oc1ncc(S(=O)(=O)Nc2ccncn2)cc1Cl` [Example 3, 5-Chloro-6-(((1S,2S,4S)-2-(dimethylamino)-4-(3-(trifluoromethyl)phenyl)cyclohexyl)oxy)-N-(pyrimidin-4-yl)pyridine-3-sulfonamide], the IC50 amounted to 2.21 nM.

With `CN(C)[C@H]1C[C@@H](c2cccc(C(F)(F)F)c2)CC[C@@H]1Nc1ncc(S(=O)(=O)Nc2ccncn2)cc1Cl` [Example 4, 5-Chloro-6-(((1S,2S,4S)-2-(dimethylamino)-4-(3-(trifluoromethyl)phenyl)cyclohexyl)amino)-N-(pyrimidin-4-yl)pyridine-3-sulfonamide], the IC50 was found to be 0.765 nM.

With `CN(C)[C@H]1C[C@@H](c2cccc(C(F)(F)F)c2)CC[C@@H]1Nc1ccc(S(=O)(=O)Nc2ccncn2)nc1` [Example 5, 5-(((1S,2S,4S)-2-(Dimethylamino)-4-(3-(trifluoromethyl)phenyl)cyclohexyl)amino)-N-(pyrimidin-4-yl)pyridine-2-sulfonamide], the IC50 was 8.33 nM.

In the case of `CN(C)[C@H]1C[C@@H](c2cccc(C(F)(F)F)c2)CC[C@@H]1Oc1ncc(S(=O)(=O)Nc2ccncn2)cc1C#N` [Example 6, 5-Cyano-6-(((1S,2S,4S)-2-(dimethylamino)-4-(3-(trifluoromethyl)phenyl)cyclohexyl)oxy)-N-(pyrimidin-4-yl)pyridine-3-sulfonamide formate], the IC50 came to 3.51 nM.

For `CN(C)[C@H]1C[C@@H](c2cccc(C(F)(F)F)c2)CC[C@@H]1Oc1ncc(S(=O)(=O)Nc2ccncn2)cc1C1CC1` [Example 7, 5-Cyclopropyl-6-(((1S,2S,4S)-2-(dimethylamino)-4-(3-(trifluoromethyl)phenyl)cyclohexyl)oxy)-N-(pyrimidin-4-yl)pyridine-3-sulfonamide formate], the IC50 worked out at 1.16 nM.

With `O=S(=O)(Nc1ccncn1)c1ccc(O[C@H]2CC[C@H](c3cccc(OC(F)(F)F)c3)C[C@@H]2N2CCCC2)nc1` [Example 10, N-(pyrimidin-4-yl)-6-(((1S,2S,4S)-2-(pyrrolidin-1-yl)-4-(3-(trifluoromethoxy)phenyl)cyclohexyl)oxy)-pyridine-3-sulfonamide], the IC50 is 5.62 nM.

As for `CN(C)[C@H]1C[C@@H](c2ccc(Cl)c(C(F)(F)F)c2)CC[C@@H]1Nc1ccc(S(=O)(=O)Nc2ccncn2)cn1` [Example 11, 6-(((1S,2S,4S)-4-(4-chloro-3-(trifluoromethyl)phenyl)-2-(dimethylamino)cyclohexyl)amino)-N-(pyrimidin-4-yl)pyridine-3-sulfonamide formate], the IC50 was determined as 1.07 nM.

`CN(C)[C@H]1C[C@@H](c2ccc(Cl)c(C(F)(F)F)c2)CC[C@@H]1Oc1ccc(S(=O)(=O)Nc2ccncn2)cn1` [Example 12, 6-(((1S,2S,4S)-4-(4-chloro-3-(trifluoromethyl)phenyl)-2-(dimethylamino)cyclohexyl)oxy)-N-(pyrimidin-4-yl)pyridine-3-sulfonamide formate]: the IC50 is 0.66 nM.

Turning to `CN(C)[C@H]1C[C@@H](c2cccc(OC(F)(F)F)c2)CC[C@@H]1Oc1ncc(S(=O)(=O)Nc2ccncn2)cc1Cl` [Example 13, 5-chloro-6-(((1S,2S,4S)-2-(dimethylamino)-4-(3-(trifluoromethoxy)phenyl)cyclohexyl)oxy)-N-(pyrimidin-4-yl)pyridine-3-sulfonamide], the IC50 amounted to 1.55 nM.

As for `CN(C)[C@H]1C[C@@H](c2cccc(C(F)(F)F)c2)CC[C@@H]1Oc1ncc(S(=O)(=O)Nc2ccncn2)cc1C(F)(F)F` [Example 14, 6-(((1S,2S,4S)-2-(dimethylamino)-4-(3-(trifluoromethyl)phenyl)cyclohexyl)oxy)-N-(pyrimidin-4-yl)-5-(trifluoromethyl)pyridine-3-sulfonamide], the IC50 turned out to be 5.08 nM.

Turning to `Cc1cc(S(=O)(=O)Nc2ccncn2)cnc1O[C@H]1CC[C@H](c2cccc(C(F)(F)F)c2)C[C@@H]1N(C)C` [Example 15, 6-(((1S,2S,4S)-2-(Dimethylamino)-4-(3-(trifluoromethyl)phenyl)cyclohexyl)oxy)-5-methyl-N-(pyrimidin-4-yl)pyridine-3-sulfonamide], the IC50 is 4.23 nM.

For `O=S(=O)(Nc1ccncn1)c1ccc(N[C@H]2CC[C@H](c3cccc(C(F)(F)F)c3)C[C@@H]2N2CCCC2)nc1` [Example 16, N-(pyrimidin-4-yl)-6-(((1S,2S,4S)-2-(pyrrolidin-1-yl)-4-(3-(trifluoromethyl)phenyl)cyclohexyl)-amino)pyridine-3-sulfonamide formate], the half-inhibitory concentration (IC50) is 2.79 nM.

Regarding `O=S(=O)(Nc1ccncn1)c1ccc(O[C@H]2CC[C@H](c3cccc(C(F)(F)F)c3)C[C@@H]2N2CCCC2)nc1` [Example 17, N-(pyrimidin-4-yl)-6-(((1S,2S,4S)-2-(pyrrolidin-1-yl)-4-(3-(trifluoromethyl)phenyl)cyclohexyl)oxy)-pyridine-3-sulfonamide formate], the IC50 worked out at 0.602 nM.

In the case of `O=S(=O)(Nc1ccncn1)c1cnc(O[C@H]2CC[C@H](c3cccc(C(F)(F)F)c3)C[C@@H]2N2CCCC2)c(Cl)c1` [Example 18, 5-chloro-N-(pyrimidin-4-yl)-6-(((1S,2S,4S)-2-(pyrrolidin-1-yl)-4-(3-(trifluoromethyl)phenyl)-cyclohexyl)oxy)pyridine-3-sulfonamide], the IC50 stood at 0.388 nM.

With `O=S(=O)(Nc1ccncn1)c1cnc(O[C@H]2CC[C@H](c3cccc(C(F)(F)F)c3)C[C@@H]2N2CCCCC2)c(Cl)c1` [Example 19, 5-chloro-6-(((1S,2S,4S)-2-(piperidin-1-yl)-4-(3-(trifluoromethyl)phenyl)cyclohexyl)oxy)-N-(pyrimidin-4-yl)pyridine-3-sulfonamide], the IC50 is 0.281 nM.

Consider `CN(C)[C@H]1C[C@@H](c2cccc(C(F)(F)F)c2)CC[C@@H]1Oc1ncc(S(=O)(=O)Nc2ccncn2)cc1Br` [Example 20, 5-bromo-6-(((1S,2S,4S)-2-(dimethylamino)-4-(3-(trifluoromethyl)phenyl)cyclohexyl)oxy)-N-(pyrimidin-4-yl)pyridine-3-sulfonamide formate], for which the IC50 amounted to 0.9 nM.

As for `CN(C)[C@H]1C[C@@H](c2cccc(C(F)(F)F)c2)CC[C@@H]1Oc1ncc(S(=O)(=O)Nc2ccncn2)cc1F` [Example 21, 6-(((1S,2S,4S)-2-(Dimethylamino)-4-(3-(trifluoromethyl)phenyl)cyclohexyl)oxy)-5-fluoro-N-(pyrimidin-4-yl)pyridine-3-sulfonamide], the IC50 worked out at 0.427 nM.

For `CN(C)[C@H]1C[C@@H](c2cccc(C(F)(F)F)c2)CC[C@@H]1Oc1ccc(S(=O)(=O)Nc2ccncn2)c(Cl)n1` [Example 22, 2-Chloro-6-(((1S,2S,4S)-2-(dimethylamino)-4-(3-(trifluoromethyl)phenyl)cyclohexyl)oxy)-N-(pyrimidin-4-yl)pyridine-3-sulfonamide], the IC50 was 2.21 nM.

Take `Cc1nc(O[C@H]2CC[C@H](c3cccc(C(F)(F)F)c3)C[C@@H]2N(C)C)ccc1S(=O)(=O)Nc1ccncn1` [Example 23, 6-(((1S,2S,4S)-2-(Dimethylamino)-4-(3-(trifluoromethyl)phenyl)cyclohexyl)oxy)-2-methyl-N-(pyrimidin-4-yl)pyridine-3-sulfonamide formate]: the IC50 stood at 0.765 nM.

`CCc1cc(S(=O)(=O)Nc2ccncn2)cnc1O[C@H]1CC[C@H](c2cccc(C(F)(F)F)c2)C[C@@H]1N(C)C` [Example 24, 6-(((1S,2S,4S)-2-(Dimethylamino)-4-(3-(trifluoromethyl)phenyl)cyclohexyl)oxy)-5-ethyl-N-(pyrimidin-4-yl)pyridine-3-sulfonamide formate]: the IC50 amounted to 8.33 nM.

With `CN(C)[C@H]1C[C@@H](c2cccc(OC(F)(F)F)c2)CC[C@@H]1Oc1ccc(S(=O)(=O)Nc2ccncn2)cn1` [Example 25, 6-(((1S,2S,4S)-2-(dimethylamino)-4-(3-(trifluoromethoxy)phenyl)cyclohexyl)oxy)-N-(pyrimidin-4-yl)pyridine-3-sulfonamide formate], the IC50 stood at 3.51 nM.

For the origin of these results see patent US20250115576A1, “THERAPEUTIC COMPOUNDS AND METHODS OF USE THEREOF” (Genentech, Inc., priority 2018, published 2025).
